# Test results as given in patent publication US20260364145A1, “MODIFIED CAVEOLIN-1 PEPTIDE FORMULATIONS AND METHODS OF MANUFACTURING AND USE THEREOF” (REIN THERAPEUTICS, INC., priority 2023, published 2026).
# “And” between values parts separate entries of the source, which are not always exact repeats. Equal values may be shown once. Read-outs that look alike come from different tables or passages of the source. Non-standard residues stand in square brackets, D forms with d. Residues, ends and D or L forms follow the SMILES beside them.
# Legend:
# [1] = Aqueous solubility; format: physicochemical
# [2] = Plasma pharmacokinetics after single-dose subcutaneous administration; format: in vivo, rat (Sprague Dawley); conditions: for plasma concentration / concentration at 1 h / concentration at 2 h / concentration at 4 h / concentration at 8 h / concentration at 24 h / concentration at 48 h / concentration at 96 h / concentration at 168 h / concentration at 240 h / concentration at 336 h / concentration at 528 h / concentration at 696 h / concentration at 840 h / concentration at 1008 h: SC 2.0 mg/kg, 2 mg/kg; for concentration at 1 h / concentration at 2 h / concentration at 4 h / concentration at 8 h / concentration at 24 h / concentration at 48 h / concentration at 96 h / concentration at 168 h / concentration at 240 h / concentration at 336 h / concentration at 528 h / concentration at 696 h / concentration at 840 h / concentration at 1008 h: rat, plasma, sc
# [3] = APi2355 concentrations in BALF and tissues at 42 days post-treatment (LC/MS/MS); format: in vivo, rat (Sprague Dawley); conditions: for BALF concentration / Heart concentration / Kidney concentration / Liver concentration / Lung concentration / Skin concentration: SC 2.0 mg/kg, listed as APi2335, 2 mg/kg, 60480 min; for concentration at 1008 h: rat, sc, 2 mg/kg
# [4] = individual rats, Group 1, MSP #3 (W/O/W)
# [5] = individual rats, Group 2, MSP #5 (S/O/W)
smiles,measurement,setting,value
"CC(=O)N[C@H](C)C(=O)N[C@H](C)C(=O)N[C@@H](CCC(=O)O)C(=O)NCC(=O)N[C@@H](CCCCN)C(=O)N[C@@H](C)C(=O)N[C@@H](CO)C(=O)N[C@@H](Cc1ccccc1)C(=O)N[C@H](C(=O)N[C@H](C(=O)N[C@@H](Cc1ccccc1)C(=O)N[C@H](C(=O)N[C@H](C(=O)N[C@H](C(=O)N[C@@H](CCCCN)C(=O)NCC(=O)N[C@@H](CO)C(=O)N[C@H](C)C(=O)N[C@H](C)C(N)=O)[C@@H](C)O)C(C)C)[C@@H](C)O)[C@@H](C)O)[C@@H](C)O [APi2355, Ac-aaEGKASFTTFTVTKGSaa-NH2] (Ac-[dA][dA]EGKASFTTFTVTKGS[dA][dA]-NH2)",aqueous solubility,[1],relatively low aqueous solubility
same,plasma concentration,"[2]; 1 hr, individual rats, Group 1, MSP #3 (W/O/W), 60 min",16.02 ng/mL and 311.08 ng/mL
same,plasma concentration,"[2]; 2 hr, individual rats, Group 1, MSP #3 (W/O/W), 120 min",350.92 ng/mL and 558.41 ng/mL
same,plasma concentration,"[2]; 4 hr, individual rats, Group 1, MSP #3 (W/O/W), 240 min",501.64 ng/mL and 36.54 ng/mL
same,plasma concentration,"[2]; 8 hr, individual rats, Group 1, MSP #3 (W/O/W), 480 min",39.13 ng/mL and 12.62 ng/mL
same,plasma concentration,"[2]; 1 day, individual rats, Group 1, MSP #3 (W/O/W), 1440 min",34.98 ng/mL and 10.17 ng/mL
same,plasma concentration,"[2]; 2 day, individual rats, Group 1, MSP #3 (W/O/W), 2880 min",3.46 ng/mL
same,plasma concentration,"[2]; 4 day, individual rats, Group 1, MSP #3 (W/O/W), 5760 min",1.90 ng/mL
same,plasma concentration,"[2]; 7 day, individual rats, Group 1, MSP #3 (W/O/W), 10080 min",5.66 ng/mL
same,plasma concentration,"[2]; 10 day, individual rats, Group 1, MSP #3 (W/O/W), 14400 min",2.17 ng/mL
same,plasma concentration,"[2]; 14 day, individual rats, Group 1, MSP #3 (W/O/W), 20160 min",6.77 ng/mL and 6.89 ng/mL
same,plasma concentration,"[2]; 22 day, individual rats, Group 1, MSP #3 (W/O/W), 31680 min",7.52 ng/mL and 9.84 ng/mL
same,plasma concentration,"[2]; 29 day, individual rats, Group 1, MSP #3 (W/O/W), 41760 min",0.91 ng/mL and 1.57 ng/mL
same,plasma concentration,"[2]; 35 day, individual rats, Group 1, MSP #3 (W/O/W), 50400 min",0.32 ng/mL and 0.48 ng/mL
same,plasma concentration,"[2]; 42 day, individual rats, Group 1, MSP #3 (W/O/W), 60480 min",0.11 ng/mL and 4.85 ng/mL
same,fraction of total exposure in the first 3 weeks after SC administration,"[2]; first 3 weeks, SC 2.0 mg/kg APi2355",Approximately ⅔
same,concentration at 1 h,"[2]; 1 hr, mean, Group 1, MSP #3 (W/O/W)",157 ng/mL
same,concentration at 1 h,"[2]; 1 hr, mean, Group 2, MSP #5 (S/O/W)",175 ng/mL
same,concentration at 2 h,"[2]; 2 hr, mean, Group 1, MSP #3 (W/O/W)",198 ng/mL
same,concentration at 2 h,"[2]; 2 hr, mean, Group 2, MSP #5 (S/O/W)",287 ng/mL
same,concentration at 4 h,"[2]; 4 hr, mean, Group 1, MSP #3 (W/O/W)",185 ng/mL
same,concentration at 4 h,"[2]; 4 hr, mean, Group 2, MSP #5 (S/O/W)",195 ng/mL
same,concentration at 8 h,"[2]; 8 hr, mean, Group 1, MSP #3 (W/O/W)",195 ng/mL
same,concentration at 8 h,"[2]; 8 hr, mean, Group 2, MSP #5 (S/O/W)",130 ng/mL
same,concentration at 24 h,"[2]; 1 day, mean, Group 1, MSP #3 (W/O/W)",10.7 ng/mL
same,concentration at 24 h,"[2]; 1 day, mean, Group 2, MSP #5 (S/O/W)",9.53 ng/mL
same,concentration at 48 h,"[2]; 2 day, mean, Group 1, MSP #3 (W/O/W)",3.2 ng/mL
same,concentration at 48 h,"[2]; 2 day, mean, Group 2, MSP #5 (S/O/W)",5.23 ng/mL
same,concentration at 96 h,"[2]; 4 day, mean, Group 1, MSP #3 (W/O/W)",3.22 ng/mL
same,concentration at 96 h,"[2]; 4 day, mean, Group 2, MSP #5 (S/O/W)",3.69 ng/mL
same,concentration at 168 h,"[2]; 7 day, mean, Group 1, MSP #3 (W/O/W)",3.34 ng/mL
same,concentration at 168 h,"[2]; 7 day, mean, Group 2, MSP #5 (S/O/W)",3.37 ng/mL
same,concentration at 240 h,"[2]; 10 day, mean, Group 1, MSP #3 (W/O/W)",5.22 ng/mL
same,concentration at 240 h,"[2]; 10 day, mean, Group 2, MSP #5 (S/O/W)",10.5 ng/mL
same,concentration at 336 h,"[2]; 14 day, individual rats, Group 2, MSP #5 (S/O/W), read-out: plasma concentration",0.98 ng/mL
same,concentration at 336 h,"[2]; 14 day, mean, Group 1, MSP #3 (W/O/W), read-out: plasma concentration, Avg.",5.41 ng/mL
same,concentration at 336 h,"[2]; 14 day, mean, Group 2, MSP #5 (S/O/W), read-out: plasma concentration, Avg.",1.14 ng/mL
same,concentration at 528 h,"[2]; 22 day, mean, Group 1, MSP #3 (W/O/W)",6.35 ng/mL
same,concentration at 528 h,"[2]; 22 day, mean, Group 2, MSP #5 (S/O/W)",5.26 ng/mL
same,concentration at 696 h,"[2]; 29 day, mean, Group 1, MSP #3 (W/O/W)",2.53 ng/mL
same,concentration at 696 h,"[2]; 29 day, mean, Group 2, MSP #5 (S/O/W)",2 ng/mL
same,concentration at 840 h,"[2]; 35 day, mean, Group 1, MSP #3 (W/O/W)",0.57 ng/mL
same,concentration at 840 h,"[2]; 35 day, mean, Group 2, MSP #5 (S/O/W)",0.26 ng/mL
same,concentration at 1008 h,"[2]; 42 day, mean, Group 1, MSP #3 (W/O/W)",1.2 ng/mL
same,concentration at 1008 h,"[2]; 42 day, mean, Group 2, MSP #5 (S/O/W)",0.72 ng/mL
same,BALF concentration,[3]; [4],5.67 ng/mL and 1.45 ng/mL and 1.89 ng/mL and 1.47 ng/mL and 0.63 ng/mL and 1.53 ng/mL
same,Heart concentration,[3]; [4],10.46 ng/g and 13.81 ng/g and 8.97 ng/g and 11.09 ng/g and 3.41 ng/g and 8.39 ng/g
same,Kidney concentration,[3]; [4],63.91 ng/g and 53.55 ng/g and 30.02 ng/g and 62.91 ng/g and 57.32 ng/g and 66.29 ng/g
same,Liver concentration,[3]; [4],5.46 ng/g and 1.23 ng/g and 0.69 ng/g and 1.85 ng/g and 3.65 ng/g and 2.86 ng/g
same,Lung concentration,[3]; [4],37.40 ng/g and 29.17 ng/g and 36.51 ng/g and 62.92 ng/g and 36.86 ng/g and 38.80 ng/g
same,BALF concentration,[3]; [5],0.45 ng/mL and 0.23 ng/mL and 0.70 ng/mL and 0.52 ng/mL and 4.10 ng/mL and 2.17 ng/mL and 0.71 ng/mL
same,Heart concentration,[3]; [5],14.37 ng/g and 14.17 ng/g and 9.32 ng/g and 7.53 ng/g and 15.87 ng/g and 12.57 ng/g and 16.18 ng/g
same,Kidney concentration,[3]; [5],31.78 ng/g and 41.08 ng/g and 52.67 ng/g and 38.43 ng/g and 33.98 ng/g and 36.28 ng/g
same,Liver concentration,[3]; [5],8.34 ng/g and 8.26 ng/g and 0.24 ng/g and 0.47 ng/g and 1.33 ng/g and 4.81 ng/g and 5.22 ng/g
same,Lung concentration,[3]; [5],35.15 ng/g and 31.08 ng/g and 28.00 ng/g and 53.76 ng/g and 47.20 ng/g and 35.92 ng/g
same,Skin concentration,"[3]; injection site skin, individual rats, Group 1, MSP #3 (W/O/W)",29.72 ng/g and 13.12 ng/g and 14.02 ng/g and 20.81 ng/g and 2.28 ng/g and 31.92 ng/g
same,Skin concentration,"[3]; injection site skin, individual rats, Group 2, MSP #5 (S/O/W)",4.08 ng/g and 4.10 ng/g and 2.92 ng/g and 3.69 ng/g and 3.40 ng/g and 14.71 ng/g and 1.60 ng/g
same,concentration at 1008 h,"[3]; balf, mean, Group 1, MSP #3 (W/O/W), read-out: BALF concentration, Avg.",2.11 ng/mL
same,concentration at 1008 h,"[3]; balf, mean, Group 2, MSP #5 (S/O/W), read-out: BALF concentration, Avg.",1.27 ng/mL
same,concentration at 1008 h,"[3]; heart, mean, Group 1, MSP #3 (W/O/W), read-out: Heart concentration, Avg.",9.35 ng/g
same,concentration at 1008 h,"[3]; heart, mean, Group 2, MSP #5 (S/O/W), read-out: Heart concentration, Avg.",12.9 ng/g
same,concentration at 1008 h,"[3]; injection site skin, injection site skin, mean, Group 1, MSP #3 (W/O/W), read-out: Skin concentration, Avg.",18.6 ng/g
same,concentration at 1008 h,"[3]; injection site skin, injection site skin, mean, Group 2, MSP #5 (S/O/W), read-out: Skin concentration, Avg.",4.93 ng/g
same,concentration at 1008 h,"[3]; kidney, individual rats, Group 2, MSP #5 (S/O/W), read-out: Kidney concentration",33.1 ng/g
same,concentration at 1008 h,"[3]; kidney, mean, Group 1, MSP #3 (W/O/W), read-out: Kidney concentration, Avg.",55.7 ng/g
same,concentration at 1008 h,"[3]; kidney, mean, Group 2, MSP #5 (S/O/W), read-out: Kidney concentration, Avg.",38.2 ng/g
same,concentration at 1008 h,"[3]; liver, mean, Group 1, MSP #3 (W/O/W), read-out: Liver concentration, Avg.",2.62 ng/g
same,concentration at 1008 h,"[3]; liver, mean, Group 2, MSP #5 (S/O/W), read-out: Liver concentration, Avg.",4.09 ng/g
same,concentration at 1008 h,"[3]; lung, individual rats, Group 2, MSP #5 (S/O/W), read-out: Lung concentration",35.9 ng/g
same,concentration at 1008 h,"[3]; lung, mean, Group 1, MSP #3 (W/O/W), read-out: Lung concentration, Avg.",40.3 ng/g
same,concentration at 1008 h,"[3]; lung, mean, Group 2, MSP #5 (S/O/W), read-out: Lung concentration, Avg.",38.1 ng/g
